Laboratory results: patent publication US20070167499A1, “Biaryl linked hydroxamates: preparation and pharmaceutical applications” (A*BIO Pte Ltd., priority 2003, published 2007)

How the values were obtained:
[1] = test system: Ramos Burkitt-lymphoma cells; experiment: Apoptosis assay (Annexin V / PI flow cytometry); format: cell-based, human; details: 48 h after treatment with 10 μM
Excerpt: In various therapies such as for proliferative disorders like cancer, the selective induction of apoptosis in proliferating cells such as tumor cells is one of the desirable approaches, and can be mediated by treatment with various anti-proliferative compounds [Blagosklonny MV, Oncogene, 23(16): 2967 (2004); Kaufmann and Eamshaw, Exp Cell Res. 256(1): 42-9 (2000)]. Programmed cell death or apoptosis is the cellular response to stress factors such as DNA damage introduced during conventional anti-cancer treatment. The concerted sequence of events during apoptosis, clearly differentiate this pathway from a non-coordinated form of cell death called necrosis. During the course of apoptosis, characteristic phenotypical cellular changes occur, which include the condensation of chromatin, the shrinkage of cells and finally the fragmentation of chromosomal DNA. One of the very early change caused by apoptotic events occurs in the phospholipids bilayer of the plasma membrane. The phospholipid phosphatidylserine is translocated from the inner to the outer side of the plasma-membrane and, as a result, is exposed to the extracellular space. One way of detecting early apoptotic cells is to determine the amount of phosphatidyl-serine at the extracellular side of the plasma-membrane which is accomplished by the standard flow cytometric method of Annexin V staining. The phospholipids recognizing protein Annexin V binds with high affinity to these inverted and exposed phosphatidyl-serines.
The ability of the compounds in this invention to induce apoptosis was tested in Ramos Burkitt-lymphoma cells. This cell line is one of the gold standard cell lines commonly used as a tissue culture model for B cell lymphoma. Representative compounds as indicated below were added to 80,000 cells per 500 μl growth medium (RPMI1640 medium supplemented with 2 mM L-Glutamine, 10% heat-inactivated FBS, 1 mM Na-Pyruvate and 10 mM HEPES) in 24 well format at various concentrations. Two days after the start of treatment, cells were collected and subjected to the Annexin V staining protocol following the instructions of the manufacturer (BD Biosciences). By using propidium iodide (PI) as a viability control, cells that stain positive for Annexin V, but negative for PI, are undergoing apoptosis.

[2] = target: T1, HDAC8 enzyme (GST-HDAC8) (Homo sapiens, UniProt Q9BY41); experiment: In vitro HDAC assay for determination of IC50 values (BIOMOL fluorescent-based HDAC activity assay), HDAC8; format: biochemical; details: 500 nM HDAC8 enzyme, 200 μM Flur de lys p53 peptide substrate, room temperature 2 h; read-out: HDAC8 Enzyme Activity, IC50
T1 construct: Amplification of human HDAC1 and HDAC8 coding region from this cDNA library; made in house; host or cells: SF9 insect cells (baculovirus, pFASTBAC vector)
T1 sequence (Q9BY41 1-377): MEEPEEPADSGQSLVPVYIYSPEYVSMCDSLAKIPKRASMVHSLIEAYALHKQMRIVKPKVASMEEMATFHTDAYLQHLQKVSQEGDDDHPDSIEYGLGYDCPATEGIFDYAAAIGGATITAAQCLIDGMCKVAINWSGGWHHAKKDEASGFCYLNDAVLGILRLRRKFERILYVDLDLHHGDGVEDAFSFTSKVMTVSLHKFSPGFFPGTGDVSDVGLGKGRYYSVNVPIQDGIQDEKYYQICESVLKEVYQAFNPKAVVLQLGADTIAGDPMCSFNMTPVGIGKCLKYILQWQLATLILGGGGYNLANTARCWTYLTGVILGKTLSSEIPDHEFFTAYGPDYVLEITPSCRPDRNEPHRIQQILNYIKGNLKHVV
Method: (§1) Recombinant GST-HDAC1 and GST-HDAC-8 Protein expression and purification
Human cDNA library was prepared using cultured SW620 cells. Amplification of human HDAC1 and HDAC8 coding region from this cDNA library was cloned separately into the baculovirus expression pDEST20 vector and pFASTBAC vector respectively (GATEWAY Cloning Technology, Invitrogen Pte Ltd). […] Recombinant baculovirus was prepared using the Bac-To-Bac method following the manufacturer's instruction (Invitrogen Pte Ltd).
(§2) Expression of GST-HDAC1 or HTGST-HDAC8 was done by infecting SF9 cells (Invitrogen Pte Ltd) with pDEST20-HDAC1 or pFASTBAC-GST-HDAC8 baculovirus at MOI=1 for 48 h. Soluble cell lysate was incubated with pre-equilibrated Glutathione Sepharose 4B beads (Amersham) at 4° C. for 2 h. The beads were washed with PBS buffer for 3 times. The GST-HDAC1 protein or GST-HDAC8 protein was eluted by elution buffer containing 50 mM Tris, pH8.0, 150 mM NaCl, 1% Triton X-100 and 10 mM or 20 mM reduced Glutathione. The purified GST-HDAC1 protein or purified GST-HDAC8 protein was dialyzed with HDAC storage buffer containing 10 mM Tris, pH7.5, 100 mM NaCl and 3 mM MgCl2. 20% Glycerol was added to purified GST-HDAC1 protein or purified GST-HDAC8 before storage at −80° C.
(§3) In vitro HDAC assay for determination of IC50 values
The assay has been carried out in 96 well format and the BIOMOL fluorescent-based HDAC activity assay has been applied. […] Flur de lys Developer was added and the reaction was incubated for 10 min. Briefly, deacetylation of the substrate sensitizes it to the developer, which then generates a fluorophore The fluorophore is excited with 360 nm light and the emitted light (460 nm) is detected on a fluorometric plate reader (Tecan Ultra Microplate detection system, Tecan Group Ltd.).
(§4) The analytical software, Prism 3.0® (GraphPad Software Inc) has been used to generate IC50 from a series of data.

[3] = target: T2, HDAC1 enzyme (GST-HDAC1) (Homo sapiens, UniProt Q13547); experiment: In vitro HDAC assay for determination of IC50 values (BIOMOL fluorescent-based HDAC activity assay), HDAC1; format: biochemical; details: 600 nM HDAC1 enzyme, 500 μM Flur de lys generic substrate, room temperature 2 h
T2 construct: Amplification of human HDAC1 and HDAC8 coding region from this cDNA library; made in house; host or cells: SF9 insect cells (baculovirus, pDEST20 vector)
Method: as §1
Human cDNA library was prepared using cultured SW620 cells. Amplification of human HDAC1 and HDAC8 coding region from this cDNA library was cloned separately into the baculovirus expression pDEST20 vector and pFASTBAC vector respectively (GATEWAY Cloning Technology, Invitrogen Pte Ltd). The pDEST20-HDAC1 and pFASTBAC-HTGST-HDAC8 constructs were confirmed by DNA sequencing. Recombinant baculovirus was prepared using the Bac-To-Bac method following the manufacturer's instruction (Invitrogen Pte Ltd). Baculovirus titer was determined by plaque assay to be about 10^8 PFU/ml.
as §2, §3
The assay has been carried out in 96 well format and the BIOMOL fluorescent-based HDAC activity assay has been applied. The reaction composed of assay buffer, containing 25 mM Tris pH 7.5, 137 mM NaCl, 2.7 mM KCl, 1 mM MgCl2, 1 mg/ml BSA, tested compounds, 500 nM HDAC8 enzyme or 600 nM HDAC1 enzyme, 200 μM Flur de lys p53 peptide substrate for HDAC8 enzyme or 500 μM Flur de lys generic substrate for HDAC1 enzyme and subsequently was incubated at room temperature for 2 h. Flur de lys Developer was added and the reaction was incubated for 10 min. Briefly, deacetylation of the substrate sensitizes it to the developer, which then generates a fluorophore The fluorophore is excited with 360 nm light and the emitted light (460 nm) is detected on a fluorometric plate reader (Tecan Ultra Microplate detection system, Tecan Group Ltd.).
as §4

[4] = test system: acetylated H3 in Colo205 cells; experiment: Histone H3 acetylation assay (western-blot); format: cell-based, human; design: key: “Active” means accumulation of acetylated histone was observed when compared with control (without compound); details: Colo205 cells, 0.1, 1, 5 and 10 μM, after 24 h
Method: (§5) Histone H3, H4 and H2A acetylation assay
A hallmark of histone deacetylase (HDAC) inhibition is the increase in the acetylation level of histones. Histone acetylation, including H3, H4 and H2A can be detected by immuno-blotting (western-blot). Colo205 cells, approximately 1.5×10^6 cells/10 cm dish, were seeded in the previously described medium, cultivated for 24 h and subsequently treated with HDAC inhibitory agents at 0.1, 1, 5 and 10 μM final concentration. […] The protein concentration was quantified using BCA method (Sigma Pte Ltd). The protein lysate was separated using 4-12% bis-tris SDS-PAGE gel (Invitrogen Pte Ltd) and was transferred onto PVDF membrane (BioRad Pte Ltd). The membrane was probed separately using primary antibody specific for acetylated H3, acetylated H4 or acetylated H2A (Upstate Pte Ltd). The detection antibody, goat anti rabbit antibody conjugated with horse radish peroxidase (HRP) was used according to the manufacturing instruction (Pierce Pte Ltd). After removing the detection antibody from the membrane, an enhanced chemiluminescent substrate for detection of HRP (Pierce Pte Ltd) was added onto the membrane. After removing the substrate, the membrane was exposed to an X-ray film (Kodak) for 1 sec-20 mins. The X-ray film was developed using the X-ray film processor. The density of each band observed on the developed film could be analysed using UVP Bioimaging software (UVP, Inc, Upland, Calif.). The values were then normalized against the density of actin in the corresponding samples to obtain the expression of the protein.

[5] = test system: acetylated H4 in Colo205 cells; experiment: Histone H4 acetylation assay (western-blot); format: cell-based, human; design: key: “Active” means accumulation of acetylated histone was observed when compared with control (without compound); details: Colo205 cells, 0.1, 1, 5 and 10 μM, after 24 h
Method: as §5
A hallmark of histone deacetylase (HDAC) inhibition is the increase in the acetylation level of histones. Histone acetylation, including H3, H4 and H2A can be detected by immuno-blotting (western-blot). Colo205 cells, approximately 1.5×10^6 cells/10 cm dish, were seeded in the previously described medium, cultivated for 24 h and subsequently treated with HDAC inhibitory agents at 0.1, 1, 5 and 10 μM final concentration. After 24 h, cells were harvested and lysed according to the instruction from Sigma Mammalian Cell Lysis Kit. The protein concentration was quantified using BCA method (Sigma Pte Ltd). The protein lysate was separated using 4-12% bis-tris SDS-PAGE gel (Invitrogen Pte Ltd) and was transferred onto PVDF membrane (BioRad Pte Ltd). The membrane was probed separately using primary antibody specific for acetylated H3, acetylated H4 or acetylated H2A (Upstate Pte Ltd). The detection antibody, goat anti rabbit antibody conjugated with horse radish peroxidase (HRP) was used according to the manufacturing instruction (Pierce Pte Ltd). After removing the detection antibody from the membrane, an enhanced chemiluminescent substrate for detection of HRP (Pierce Pte Ltd) was added onto the membrane. After removing the substrate, the membrane was exposed to an X-ray film (Kodak) for 1 sec-20 mins. The X-ray film was developed using the X-ray film processor. The density of each band observed on the developed film could be analysed using UVP Bioimaging software (UVP, Inc, Upland, Calif.). The values were then normalized against the density of actin in the corresponding samples to obtain the expression of the protein.

T2 sequence (Q13547 whole entry): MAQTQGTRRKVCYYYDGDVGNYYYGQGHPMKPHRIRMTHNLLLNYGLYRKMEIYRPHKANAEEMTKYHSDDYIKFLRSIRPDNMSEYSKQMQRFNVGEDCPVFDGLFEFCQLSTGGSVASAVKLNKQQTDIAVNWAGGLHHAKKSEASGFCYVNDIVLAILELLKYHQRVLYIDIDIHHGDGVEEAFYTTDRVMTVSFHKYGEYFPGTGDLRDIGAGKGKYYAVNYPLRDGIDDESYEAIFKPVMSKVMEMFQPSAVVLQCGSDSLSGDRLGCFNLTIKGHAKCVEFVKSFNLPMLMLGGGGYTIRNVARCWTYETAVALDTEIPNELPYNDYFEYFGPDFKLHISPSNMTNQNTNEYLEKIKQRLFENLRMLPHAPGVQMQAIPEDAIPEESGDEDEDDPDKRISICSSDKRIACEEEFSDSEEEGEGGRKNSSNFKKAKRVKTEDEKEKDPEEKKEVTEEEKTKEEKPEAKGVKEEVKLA

SMILES	IC50 [2]	IC50 [3]	% cells in late apoptosis (Ramos) [1]	Histone 3 acetylation [4]	Histone 4 acetylation [5]
O=C(Cc1ccccc1)NCc1cccc(-c2ccc(C(=O)NO)cc2)c1 [3′-(Phenylacetylamino-methyl)-biphenyl-4-carboxylic acid hydroxyamide, reference compound]			89%		
Cc1nc(C2CCCNC2)sc1C(=O)Nc1nc(-c2ccc(CC(=O)NO)s2)cs1 (stereo not drawn) [Example 6]	40 nM	2780 nM			
O=C(Cc1ccc(-c2csc(NC(=O)c3ccc(N4CCNCC4)cc3)n2)s1)NO [Example 8]	89 nM	2760 nM	74%		
O=C(Cc1ccc(-c2csc(NC(=O)c3ccn(CC4CCNCC4)c3-c3ccccc3)n2)s1)NO [Example 10]	140 nM	> 100000 nM			
O=C(Cc1ccccc1)Nc1nc(-c2cc(C(=O)NO)no2)cs1 [Example 17, 5-(2-Phenylacetylamino-thiazol-4-yl)-isoxazole-3-carboxylic acid hydroxyamide]	340 nM	1400 nM			
O=C(Nc1cccc(-c2cc(C(=O)NO)n[nH]2)c1)c1ccccc1 [Example 18, 5-(3-Benzoylamino-ihenyl)-1H-pyrazole-3-carboxylic acid hydroxyamide]	350 nM	> 100000 nM			

Second part, led by results:

IC50 [2]	IC50 [3]	SMILES	% cells in late apoptosis (Ramos) [1]	Histone 3 acetylation [4]	Histone 4 acetylation [5]
290 nM	1130 nM	O=C(NO)c1ccc(-c2csc(NS(=O)(=O)c3ccccc3)n2)s1 [Example 15, 5-(2-Benzenesulfonylamino-thiazol-4-yl)-thiophene-2-carboxylic acid hydroxyamide]			
38 nM	700 nM	O=C(COc1ccccc1)Nc1nc(-c2ccc(C(=O)NO)s2)cs1 [Example 16, 5-[2-(2-Phenoxy-acetamino)-thiazol-4-yl]-thiophene-2-carboxylic acid hydroxyamide]	90%		
14 nM	15 nM	O=C(NO)c1ccc(-c2ccc(CNCCc3c[nH]c4ccccc34)cc2)s1 [Example 28]			
26 nM	87 nM	O=C(NO)c1ccc(-c2cccc(CNCCc3ccccc3)c2)s1 [Example 29]			
50 nM	220 nM	O=C(NO)c1ccc(-c2cccc(CNCCc3ccccn3)c2)s1 [Example 30]		Active	Active
8 nM	17 nM	O=C(NO)c1ccc(-c2cccc(CNCCc3c[nH]c4ccccc34)c2)s1 [Example 31]			
110 nM	1420 nM	O=C(NO)c1ccc(-c2ccc(NCc3ccccc3)cc2)s1 [Example 44]	82%		
